Measured values from publication PMC9427925, “The measurement of binding affinities by NMR chemical shift perturbation” (Journal of Biomolecular Nmr, 2022).

Biological target: T1, HisJ (Escherichia coli, UniProt P0AEU0)
T1 construct: HisJ (241 residues)
Test: […] HSQC/TROSY NMR chemical shift perturbation titration, global fit of all 1H and […] shifts
Type: binding

T1 sequence (P0AEU0 23-260): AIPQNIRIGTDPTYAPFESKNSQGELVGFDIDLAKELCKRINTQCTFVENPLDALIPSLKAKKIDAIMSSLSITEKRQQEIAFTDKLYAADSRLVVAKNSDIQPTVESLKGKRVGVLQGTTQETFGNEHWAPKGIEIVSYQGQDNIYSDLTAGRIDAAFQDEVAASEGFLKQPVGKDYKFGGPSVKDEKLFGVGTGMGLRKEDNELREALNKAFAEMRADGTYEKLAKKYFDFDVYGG

With `NCCCC[C@H](N)C(=O)O` [lysine] the Kd was 55.3 ± 0.4 µM.
